In brackets after ≈: the same amount, converted by molar mass. Where two headings read alike, the source gives them in different places.
Columns and labels:
guinea pig = conditions: in vivo; cited from earlier work
rat [1] = conditions: Trinity 1.69SC MSDS; cited from earlier work
Lepomis macrochirus = conditions: cited from earlier work
honey bee = conditions: cited from earlier work
anthracnose (C. cereale) = assay: Field efficacy test, control of anthracnose on putting green turf; format: in vivo, 'Dominant Plus' creeping bentgrass; conditions: Trinity 1.69SC 0.32 ml/m^2, 14 d interval; for Turf quality: 1-to-9 scale (9 = best), anthracnose trial
Colletotrichum cereale = assay: In vitro sensitivity assay (radial growth on fungicide-amended PDA); format: cell-based
Description: (§1) Three isolates of S. homoeocarpa and two isolates of C. cereale were selected to evaluate ningnanmycin (Ningnanmycin 10WP, Deqiang Biological Co., LTD. Harbin, Helongjiang, China) in vitro activities using 5 three-fold dilutions from 0.81 to 0.01 μg a.i./ml. […] Based on preliminary experiments, five dilutions of triticonazole were used, ranging from 0.81 to 0.01 μg a.i/ml for isolates of S. homoeocarpa and from 6.25 to 0.01 μg a.i./ml for isolates of C. cereale. All isolates were prepared for long-term storage on pieces of dried filter paper maintained at −80° C. Filter paper sections containing each isolate were removed from −80° C. storage and placed on PDA amended with 0.05 μg/ml each of chloramphenicol, streptomycin, and tetracycline (PDA+++). After 3 days, mycelium-containing plugs (1×1 cm) were transferred to water agar for another 2 days. Then, water agar plugs (0.45 cm diameter) were cut from the periphery of the colony using a cork borer and placed on the center of Petri dishes containing non-amended PDA and PDA amended with the serial concentrations of each fungicide with three replicates per isolate. Radial growth was measured after three days (72 h) incubation at room temperature for isolates of S. homoeocarpa and seven days for isolates of C. cereale. Relative Growth (RG) was calculated by dividing colony diameter on amended PDA by that on the non-amended PDA. EC50 values were then calculated using the method described by Secor et al. (Fungicide resistance assays for fungal plant pathogens. Methods Mol Biol. 835:385-392, 2012). The in vitro sensitivity assay repeated twice and EC50 value of each isolates was determined as the mean of EC50 values from two assays.

Sclerotinia homoeocarpa = assay: as above; format: cell-based; conditions: Clarireedia homoeocarpa
Description: as §1

green algae = conditions: in vivo; cited from earlier work
rabbit [2] = conditions: in vivo; cited from earlier work
rat [3] = conditions: cited from earlier work
rabbit [4] = conditions: in vivo; cited from earlier work; remark: listed apart in the source
Oncorhynchus mykiss = conditions: cited from earlier work

CC1(C)CCC(=Cc2ccc(Cl)cc2)C1(O)Cn1cncn1 (stereo not shown) [triticonazole, reference compound]
Sensitization (guinea pig): no
Acute toxicity Oral LD50 (rat [1]): >5,000 mg/kg
Fish LC50 (96 h) (Lepomis macrochirus): >8.9 mg/L (Lepomis
Non-mammals, honey bee (honey bee): 1.87 μg/bee
Turf quality (anthracnose (C. cereale); Aug. 8, 2010): 5
Turf quality (anthracnose (C. cereale); Aug. 15, 2010): 5
Anthracnose severity (%) (anthracnose (C. cereale); Aug. 1, 2011): 17%
Anthracnose severity (%) (anthracnose (C. cereale); Aug. 8, 2011): 3%
Anthracnose severity (%) (anthracnose (C. cereale); Aug. 15, 2011): 12%
Anthracnose severity (%) (anthracnose (C. cereale); Jul. 25, 2011): 16%
EC50 (Colletotrichum cereale; 168 h, isolate ABR1, radial growth after seven days, mean of two assays, read-out: EC50): 1.24 µg/mL (≈ 3.9 µM)
EC50 (Colletotrichum cereale; 168 h, isolate ABR12, radial growth after seven days, mean of two assays, read-out: EC50): 0.72 µg/mL (≈ 2.27 µM)
EC50 (Colletotrichum cereale; mean of two isolates, read-out: mean EC50): 0.98 µg/mL (≈ 3.08 µM)
EC50 (Sclerotinia homoeocarpa; 72 h, isolate 761SHME, radial growth after 72 h, mean of two assays, Ningnanmycin 10WP / technical triticonazole, μg a.i./ml, read-out: EC50): 0.05 µg/mL (≈ 0.157 µM)
EC50 (Sclerotinia homoeocarpa; 72 h, isolate LWC 27, radial growth after 72 h, mean of two assays, read-out: EC50): 0.06 µg/mL (≈ 0.189 µM)
EC50 (Sclerotinia homoeocarpa; 72 h, isolate PST4, radial growth after 72 h, mean of two assays, read-out: EC50): 0.03 µg/mL (≈ 0.0944 µM)
EC50 (Sclerotinia homoeocarpa; mean of three isolates, read-out: mean EC50): 0.05 µg/mL (≈ 0.157 µM)
Aquatic plants EC50 (green algae): >1 mg/L (96 h)
Irritation to eye (rabbit [2]): slightly irritating
Acute toxicity Dermal LD50 (rat [3]): >2,000/mg/kg
Irritation to skin (rabbit [4]): moderately irritating
Fish LC50 (96 h) (Oncorhynchus mykiss): >3.6 µg/mL

Reference: patent US20130324493A1, “COMPOSITIONS COMPRISING NINGNANMYCIN AND USES THEREFOR” (North Carolina State University, priority 2012, published 2013)
